According to patent US12077503B2, “Substituted cyclic amides and their use as herbicides” (FMC CORPORATION, priority 2015, dated 2024):

How the values were obtained:
Assay type in all cases: in vivo
[1] = tested on: barnyardgrass (Echinochloa crus-galli); assay: Test A postemergence; details: for Barnyardgrass plant response rating: 125 g ai/ha, visual injury rating on 0 to 100 scale (0 no effect, 100 complete control), approx. 10 d; for Plant response rating, Barnyardgrass: 500 g ai/ha
Procedure, shortened: (§1)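 Each rating is a visual injury score from 0 to 100 given about 10 d after treatment, judged against untreated controls kept alongside in the greenhouse. In loam soil–sand blend, seeds got a preemergence directed soil spray, while postemergence plants were 2 to 10 cm tall at spraying.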

[2] = tested on: ragweed (common ragweed, Ambrosia elatior); assay: Test A postemergence; details: for Ragweed plant response rating: 125 g ai/ha, postemergence, visual injury rating on 0 to 100 scale (0 no effect, 100 complete control), approx. 10 d; for Plant response rating, Ragweed: Postemergence, 500 g ai/ha, 0 to 100 scale where 0 is no effect and 100 is complete control
Procedure, shortened: as §1

[3] = tested on: wheat (Triticum aestivum); assay: Test A postemergence; details: for Wheat plant response rating: 125 g ai/ha, postemergence, visual injury rating on 0 to 100 scale (0 no effect, 100 complete control), approx. 10 d; for Plant response rating, Wheat: Postemergence, 500 g ai/ha, 0 to 100 scale where 0 is no effect and 100 is complete control
Procedure, shortened: as §1

Kochia (Kochia scoparia) [4] = assay: Test A postemergence; details: for Kochia plant response rating: 125 g ai/ha, postemergence, visual injury rating on 0 to 100 scale (0 no effect, 100 complete control), approx. 10 d; for Plant response rating, Kochia: Postemergence, 500 g ai/ha, 0 to 100 scale where 0 is no effect and 100 is complete control
Procedure, shortened: as §1

[5] = tested on: ryegrass, Italian (Italian ryegrass, Lolium multiflorum); assay: Test A postemergence; details: for Ryegrass, Italian plant response rating: 125 g ai/ha, postemergence, visual injury rating on 0 to 100 scale (0 no effect, 100 complete control), approx. 10 d; for Plant response rating, Ryegrass, Italian: Postemergence, 500 g ai/ha, 0 to 100 scale where 0 is no effect and 100 is complete control
Procedure, shortened: as §1

[6] = tested on: giant foxtail (Setaria faberii); assay: Test A postemergence; details: for Foxtail, Giant plant response rating: 125 g ai/ha, postemergence, visual injury rating on 0 to 100 scale (0 no effect, 100 complete control), approx. 10 d; for Plant response rating, Foxtail, Giant: Postemergence, 500 g ai/ha, 0 to 100 scale where 0 is no effect and 100 is complete control
Procedure, shortened: as §1

[7] = tested on: blackgrass (Alopecurus myosuroides); assay: Test A postemergence; details: for Blackgrass plant response rating: 125 g ai/ha, visual injury rating on 0 to 100 scale (0 no effect, 100 complete control), approx. 10 d; for Plant response rating, Blackgrass: 500 g ai/ha
Procedure, shortened: as §1

corn (Zea mays) = assay: Test A postemergence; details: for Corn plant response rating: 125 g ai/ha, visual injury rating on 0 to 100 scale (0 no effect, 100 complete control), approx. 10 d; for Plant response rating, Corn: 500 g ai/ha
Procedure, shortened: as §1

[8] = tested on: pigweed (Amaranthus retroflexus); assay: Test A postemergence; details: for Pigweed plant response rating: 125 g ai/ha, postemergence, visual injury rating on 0 to 100 scale (0 no effect, 100 complete control), approx. 10 d; for Plant response rating, Pigweed: Postemergence, 500 g ai/ha, 0 to 100 scale where 0 is no effect and 100 is complete control
Procedure, shortened: as §1

[9] = tested on: Galium (catchweed bedstraw, Galium aparine); assay: Test A postemergence; details: for Galium plant response rating: 125 g ai/ha, postemergence, visual injury rating on 0 to 100 scale (0 no effect, 100 complete control), approx. 10 d; for Plant response rating, Galium: Postemergence, 500 g ai/ha, 0 to 100 scale where 0 is no effect and 100 is complete control
Procedure, shortened: as §1

[10] = tested on: barnyardgrass (Echinochloa crus-galli); assay: Test A preemergence; details: for Plant response rating, Barnyardgrass: 125 g ai/ha; for Barnyardgrass plant response rating (0 to 100 scale, 0 is no effect, 100 is complete control): 500 g ai/ha, visual injury approx. 10 d
Procedure, shortened: as §1

[11] = tested on: ragweed (common ragweed, Ambrosia elatior); assay: Test A preemergence; details: Preemergence; for Plant response rating, Ragweed: 125 g ai/ha, visual injury after approximately 10 d, 0 to 100 scale where 0 is no effect and 100 is complete control; for Ragweed plant response rating (0 to 100 scale, 0 is no effect, 100 is complete control): 500 g ai/ha, visual injury approx. 10 d
Procedure, shortened: as §1

Kochia (Kochia scoparia) [12] = assay: Test A preemergence; details: for Plant response rating, Kochia: 125 g ai/ha; for Kochia plant response rating (0 to 100 scale, 0 is no effect, 100 is complete control): 500 g ai/ha, visual injury approx. 10 d
Procedure, shortened: as §1

[13] = tested on: ryegrass, Italian (Italian ryegrass, Lolium multiflorum); assay: Test A preemergence; details: Preemergence; for Plant response rating, Ryegrass, Italian: 125 g ai/ha, visual injury after approximately 10 d, 0 to 100 scale where 0 is no effect and 100 is complete control; for Ryegrass, Italian plant response rating (0 to 100 scale, 0 is no effect, 100 is complete control): 500 g ai/ha, visual injury approx. 10 d
Procedure, shortened: as §1

[14] = tested on: giant foxtail (Setaria faberii); assay: Test A preemergence; details: for Plant response rating, Foxtail, Giant: 125 g ai/ha; for Foxtail, Giant plant response rating (0 to 100 scale, 0 is no effect, 100 is complete control): 500 g ai/ha, visual injury approx. 10 d
Procedure, shortened: as §1

[15] = tested on: pigweed (Amaranthus retroflexus); assay: Test A preemergence; details: Preemergence; for Plant response rating, Pigweed: 125 g ai/ha, visual injury after approximately 10 d, 0 to 100 scale where 0 is no effect and 100 is complete control; for Pigweed plant response rating (0 to 100 scale, 0 is no effect, 100 is complete control): 500 g ai/ha, visual injury approx. 10 d
[16] = tested on: barnyardgrass (Echinochloa crus-galli); assay: Test B flooded paddy test; details: Flood, 250 g ai/ha; 0 to 100 scale where 0 is no effect and 100 is complete control; 13 to 15 d
Procedure, shortened: (§2)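 Rating scale 0–100 (visual, vs untreated controls) after a 13–15 d greenhouse period; application to the flood layer, 3 cm above soil and maintained; plants at 2-leaf stage when treated.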

[17] = tested on: ducksalad (Heteranthera limosa); assay: Test B flooded paddy test; details: Flood, 250 g ai/ha; 0 to 100 scale where 0 is no effect and 100 is complete control; 13 to 15 d
Procedure, shortened: as §2

[18] = tested on: sedge, umbrella (small-flower umbrella sedge, Cyperus difformis); assay: Test B flooded paddy test; details: Flood, 250 g ai/ha; 0 to 100 scale where 0 is no effect and 100 is complete control; 13 to 15 d
Procedure, shortened: as §2

rice (Oryra sativa) = assay: Test B flooded paddy test; details: Flood, 250 g ai/ha; 0 to 100 scale where 0 is no effect and 100 is complete control; 13 to 15 d
Procedure, shortened: as §2

[19] = postemergence, 0 to 100 scale, 0 no effect, 100 complete control
[20] = preemergence, 0 to 100 scale (0 no effect, 100 complete control)
[21] = Postemergence, 0 to 100 scale where 0 is no effect and 100 is complete control
[22] = Preemergence, visual injury after approximately 10 d, 0 to 100 scale where 0 is no effect and 100 is complete control

Structure (SMILES) | Barnyardgrass plant response rating ([1]; postemergence) | Ragweed plant response rating [2] | Plant response rating, Ragweed [2] | Wheat plant response rating [3] | Plant response rating, Wheat [3] | Kochia plant response rating (Kochia (Kochia scoparia) [4]) | Plant response rating, Kochia (Kochia (Kochia scoparia) [4]) | Ryegrass, Italian plant response rating [5] | Plant response rating, Ryegrass, Italian [5] | Foxtail, Giant plant response rating [6] | Plant response rating, Foxtail, Giant [6] | Blackgrass plant response rating ([7]; postemergence) | Corn plant response rating (corn (Zea mays); postemergence) | Pigweed plant response rating [8] | Plant response rating, Pigweed [8] | Galium plant response rating [9] | Plant response rating, Galium [9] | Barnyardgrass plant response rating (0 to 100 scale, 0 is no effect, 100 is complete control) ([10]; Preemergence) | Plant response rating, Ragweed [11] | Ragweed plant response rating (0 to 100 scale, 0 is no effect, 100 is complete control) [11] | also measured
CN1CC(c2ccc(C(F)(F)F)cc2F)C(C(=O)Nc2ccccc2F)C1=O (stereo not drawn) [Compound 476] | 90 | 0 | 0 | 0 | 30 | 30 | 60 | 30 | 40 | 80 | 80 | 20 | 0 | 20 | 40 | 30 | 60 | 90 | 0 | 60 | Plant response rating, Barnyardgrass [1, 19]: 90; Plant response rating, Blackgrass [7, 19]: 50; Plant response rating, Corn (corn (Zea mays); [19]): 30; Plant response rating, Barnyardgrass [10, 20]: 90; Plant response rating, Kochia (Kochia (Kochia scoparia) [12]; [20]): 50; Kochia plant response rating (0 to 100 scale, 0 is no effect, 100 is complete control) (Kochia (Kochia scoparia) [12]; Preemergence): 70; Plant response rating, Ryegrass, Italian [13]: 0; Ryegrass, Italian plant response rating (0 to 100 scale, 0 is no effect, 100 is complete control) [13]: 40; Plant response rating, Foxtail, Giant [14, 20]: 90; Foxtail, Giant plant response rating (0 to 100 scale, 0 is no effect, 100 is complete control) ([14]; Preemergence): 100; Plant response rating, Pigweed [15]: 30; Pigweed plant response rating (0 to 100 scale, 0 is no effect, 100 is complete control) [15]: 80; Plant response rating, Barnyardgrass [16]: 0; Plant response rating, Ducksalad [17]: 80; Plant response rating, Sedge, Umbrella [18]: 0; Plant response rating, Rice (rice (Oryra sativa)): 0
O=C1NCC(c2ccc(C(F)(F)F)c(F)c2)C1C(=O)Nc1ccccc1F (racemic) [Compound 521] | 90 | 0 | 0 | 20 | 50 | 0 | 20 | 20 | 40 | 70 | 90 | 30 | 30 | 40 | 50 | 50 | 60 | 90 | 40 | 60 | Plant response rating, Barnyardgrass [1, 21]: 90; Plant response rating, Blackgrass [7, 21]: 40; Plant response rating, Corn (corn (Zea mays); [21]): 40; Plant response rating, Barnyardgrass [10, 22]: 90; Plant response rating, Kochia (Kochia (Kochia scoparia) [12]; [22]): 0; Kochia plant response rating (0 to 100 scale, 0 is no effect, 100 is complete control) (Kochia (Kochia scoparia) [12]; Preemergence): 70; Plant response rating, Ryegrass, Italian [13]: 30; Ryegrass, Italian plant response rating (0 to 100 scale, 0 is no effect, 100 is complete control) [13]: 50; Plant response rating, Foxtail, Giant [14, 22]: 90; Foxtail, Giant plant response rating (0 to 100 scale, 0 is no effect, 100 is complete control) ([14]; Preemergence): 90; Plant response rating, Pigweed [15]: 60; Pigweed plant response rating (0 to 100 scale, 0 is no effect, 100 is complete control) [15]: 70; Plant response rating, Barnyardgrass [16]: 40; Plant response rating, Ducksalad [17]: 85; Plant response rating, Sedge, Umbrella [18]: 0; Plant response rating, Rice (rice (Oryra sativa)): 0
